Drawing on ChEMBL document CHEMBL5291721, “A preclinical secondary pharmacology resource illuminates target-adverse drug reaction associations of marketed drugs” (Nat Commun, 2023), this text covers AC50 for 39 compounds.

Experiment [1] deals with T1, Alpha-2B adrenergic receptor (Homo sapiens, UniProt P18089).
T1 sequence (P18089 whole entry): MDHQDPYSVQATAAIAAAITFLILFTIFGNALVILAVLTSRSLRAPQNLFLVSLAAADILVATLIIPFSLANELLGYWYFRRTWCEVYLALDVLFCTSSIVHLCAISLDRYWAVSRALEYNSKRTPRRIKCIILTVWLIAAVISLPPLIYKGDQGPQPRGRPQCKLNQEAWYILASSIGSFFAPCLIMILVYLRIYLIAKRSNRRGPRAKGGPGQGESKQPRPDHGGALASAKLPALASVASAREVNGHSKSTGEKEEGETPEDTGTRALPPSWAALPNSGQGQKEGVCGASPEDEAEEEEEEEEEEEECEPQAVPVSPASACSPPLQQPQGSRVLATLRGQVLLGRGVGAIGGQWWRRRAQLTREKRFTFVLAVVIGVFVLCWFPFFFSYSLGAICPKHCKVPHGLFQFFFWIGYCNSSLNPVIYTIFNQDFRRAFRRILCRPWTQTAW

For experiment [2], the target named is T2, Gamma-aminobutyric acid receptor subunit alpha-1/alpha-2/beta-2/gamma-2 (Homo sapiens, UniProt P14867+P18507+P47869+P47870). Format: functional, cell-based.
T2 sequence (P14867 whole entry): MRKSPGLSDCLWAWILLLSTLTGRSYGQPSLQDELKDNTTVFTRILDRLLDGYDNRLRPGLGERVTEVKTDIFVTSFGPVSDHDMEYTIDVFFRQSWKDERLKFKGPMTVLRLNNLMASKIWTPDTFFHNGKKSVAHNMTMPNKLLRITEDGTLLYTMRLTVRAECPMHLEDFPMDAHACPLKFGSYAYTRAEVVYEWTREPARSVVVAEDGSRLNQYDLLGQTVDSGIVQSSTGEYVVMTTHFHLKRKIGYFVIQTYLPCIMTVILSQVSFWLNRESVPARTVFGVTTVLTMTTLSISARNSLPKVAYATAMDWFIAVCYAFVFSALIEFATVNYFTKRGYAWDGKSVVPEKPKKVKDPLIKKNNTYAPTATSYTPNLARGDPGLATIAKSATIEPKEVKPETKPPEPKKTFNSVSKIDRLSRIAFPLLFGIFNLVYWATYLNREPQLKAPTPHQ
T2 sequence (P47870 whole entry): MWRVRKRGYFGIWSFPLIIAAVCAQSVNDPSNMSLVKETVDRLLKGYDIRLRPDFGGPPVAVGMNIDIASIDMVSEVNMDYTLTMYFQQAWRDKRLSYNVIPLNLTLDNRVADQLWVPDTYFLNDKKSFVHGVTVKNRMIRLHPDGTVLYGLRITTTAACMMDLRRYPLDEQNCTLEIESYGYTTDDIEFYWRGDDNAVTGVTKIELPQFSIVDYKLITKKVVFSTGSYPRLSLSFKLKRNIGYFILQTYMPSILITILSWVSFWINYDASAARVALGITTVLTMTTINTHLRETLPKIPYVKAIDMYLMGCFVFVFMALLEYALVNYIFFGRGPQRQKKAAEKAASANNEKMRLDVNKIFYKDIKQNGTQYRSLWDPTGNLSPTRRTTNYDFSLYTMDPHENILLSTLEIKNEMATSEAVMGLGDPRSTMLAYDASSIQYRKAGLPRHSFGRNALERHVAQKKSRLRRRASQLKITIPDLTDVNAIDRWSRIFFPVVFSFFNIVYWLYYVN
T2 sequence (P18507 whole entry): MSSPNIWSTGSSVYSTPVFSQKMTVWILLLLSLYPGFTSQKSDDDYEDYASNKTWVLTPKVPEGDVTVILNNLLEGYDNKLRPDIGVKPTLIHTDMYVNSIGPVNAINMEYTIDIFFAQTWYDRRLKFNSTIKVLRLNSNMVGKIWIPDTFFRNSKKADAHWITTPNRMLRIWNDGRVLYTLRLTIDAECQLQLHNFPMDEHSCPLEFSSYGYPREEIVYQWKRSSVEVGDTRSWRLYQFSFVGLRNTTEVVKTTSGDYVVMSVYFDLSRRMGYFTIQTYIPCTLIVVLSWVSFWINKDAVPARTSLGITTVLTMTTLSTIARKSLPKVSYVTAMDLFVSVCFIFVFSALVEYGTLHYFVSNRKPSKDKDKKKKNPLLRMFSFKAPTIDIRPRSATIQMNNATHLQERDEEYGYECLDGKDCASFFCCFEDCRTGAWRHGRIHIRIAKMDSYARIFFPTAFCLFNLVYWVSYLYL
T2 sequence (P47869 whole entry): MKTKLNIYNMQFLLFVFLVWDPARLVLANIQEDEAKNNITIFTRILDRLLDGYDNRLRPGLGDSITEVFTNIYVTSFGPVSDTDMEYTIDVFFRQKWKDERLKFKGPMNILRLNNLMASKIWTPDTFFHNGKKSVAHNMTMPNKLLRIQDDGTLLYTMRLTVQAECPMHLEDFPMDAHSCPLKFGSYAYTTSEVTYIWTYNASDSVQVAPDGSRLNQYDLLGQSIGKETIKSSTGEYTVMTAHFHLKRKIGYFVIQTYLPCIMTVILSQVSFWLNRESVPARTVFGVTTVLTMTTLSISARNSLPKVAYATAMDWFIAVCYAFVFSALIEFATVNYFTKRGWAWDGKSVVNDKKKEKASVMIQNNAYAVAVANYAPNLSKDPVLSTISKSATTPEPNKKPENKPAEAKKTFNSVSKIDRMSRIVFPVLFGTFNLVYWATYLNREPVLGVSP
For experiment [3], the target named is 5-hydroxytryptamine receptor 2A (Homo sapiens, UniProt P28223). Type of experiment: functional, cell-based.
Sequence of 5-hydroxytryptamine receptor 2A (P28223 whole entry): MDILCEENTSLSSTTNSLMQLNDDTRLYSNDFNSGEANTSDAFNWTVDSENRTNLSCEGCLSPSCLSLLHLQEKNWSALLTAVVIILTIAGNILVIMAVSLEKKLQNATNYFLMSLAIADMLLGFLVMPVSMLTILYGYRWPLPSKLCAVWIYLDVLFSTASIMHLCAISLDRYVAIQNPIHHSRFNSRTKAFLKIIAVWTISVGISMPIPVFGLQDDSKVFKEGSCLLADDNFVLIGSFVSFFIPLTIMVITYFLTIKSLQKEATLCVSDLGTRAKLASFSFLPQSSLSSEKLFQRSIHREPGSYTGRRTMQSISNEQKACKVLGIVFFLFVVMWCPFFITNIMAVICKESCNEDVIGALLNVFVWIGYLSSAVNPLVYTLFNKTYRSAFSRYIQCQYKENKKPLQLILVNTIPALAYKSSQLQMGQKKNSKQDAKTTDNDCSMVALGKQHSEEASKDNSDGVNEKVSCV
Experiment [4] has as its target T2, Gamma-aminobutyric acid receptor subunit alpha-1/alpha-2/beta-2/gamma-2. Format: protein-complex assay.
Experiment [5] concerns the target Voltage-dependent L-type calcium channel subunit alpha-1C (Rattus norvegicus, UniProt P22002). Format: functional.
For experiment [6], the target named is T3, Glucocorticoid receptor (Homo sapiens, UniProt P04150).
T3 sequence (P04150 whole entry): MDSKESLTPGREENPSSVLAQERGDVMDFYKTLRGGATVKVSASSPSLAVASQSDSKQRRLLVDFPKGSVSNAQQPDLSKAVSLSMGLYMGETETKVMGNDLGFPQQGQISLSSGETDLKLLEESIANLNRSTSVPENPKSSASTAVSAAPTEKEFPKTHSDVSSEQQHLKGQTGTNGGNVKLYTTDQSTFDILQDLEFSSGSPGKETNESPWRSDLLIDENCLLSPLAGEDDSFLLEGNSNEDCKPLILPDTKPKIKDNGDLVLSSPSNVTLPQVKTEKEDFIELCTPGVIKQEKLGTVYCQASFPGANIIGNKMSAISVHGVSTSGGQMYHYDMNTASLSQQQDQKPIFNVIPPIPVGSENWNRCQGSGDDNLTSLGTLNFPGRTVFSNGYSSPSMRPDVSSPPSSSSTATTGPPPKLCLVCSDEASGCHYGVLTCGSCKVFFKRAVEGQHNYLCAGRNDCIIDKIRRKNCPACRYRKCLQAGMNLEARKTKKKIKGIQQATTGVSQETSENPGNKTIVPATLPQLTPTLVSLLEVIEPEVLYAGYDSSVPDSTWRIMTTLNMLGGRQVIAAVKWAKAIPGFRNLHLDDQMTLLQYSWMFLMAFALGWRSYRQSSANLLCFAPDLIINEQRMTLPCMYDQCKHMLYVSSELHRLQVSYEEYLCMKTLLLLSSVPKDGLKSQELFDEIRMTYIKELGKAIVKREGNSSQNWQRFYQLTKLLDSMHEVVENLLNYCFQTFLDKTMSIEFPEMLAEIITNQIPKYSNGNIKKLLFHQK

The target in experiment [7] is T4, Corticotropin-releasing factor receptor 2 (Homo sapiens, UniProt Q13324).
T4 sequence (Q13324 whole entry): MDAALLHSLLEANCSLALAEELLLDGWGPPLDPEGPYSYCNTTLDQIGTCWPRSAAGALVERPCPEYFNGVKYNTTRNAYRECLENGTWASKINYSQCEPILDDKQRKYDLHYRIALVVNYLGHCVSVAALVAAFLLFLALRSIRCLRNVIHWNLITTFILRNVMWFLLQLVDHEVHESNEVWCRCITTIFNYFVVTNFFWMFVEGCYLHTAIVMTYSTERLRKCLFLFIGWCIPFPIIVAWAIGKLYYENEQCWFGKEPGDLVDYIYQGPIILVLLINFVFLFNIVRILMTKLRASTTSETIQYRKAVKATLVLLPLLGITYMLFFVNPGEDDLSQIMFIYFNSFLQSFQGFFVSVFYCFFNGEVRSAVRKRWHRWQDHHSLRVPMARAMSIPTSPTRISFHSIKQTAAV

Experiment [8] concerns the target Glucagon receptor (Homo sapiens, UniProt P47871).

Molecules are shown by their SMILES.
Also: assay procedure not described here.

Sequence of Voltage-dependent L-type calcium channel subunit alpha-1C (P22002 whole entry): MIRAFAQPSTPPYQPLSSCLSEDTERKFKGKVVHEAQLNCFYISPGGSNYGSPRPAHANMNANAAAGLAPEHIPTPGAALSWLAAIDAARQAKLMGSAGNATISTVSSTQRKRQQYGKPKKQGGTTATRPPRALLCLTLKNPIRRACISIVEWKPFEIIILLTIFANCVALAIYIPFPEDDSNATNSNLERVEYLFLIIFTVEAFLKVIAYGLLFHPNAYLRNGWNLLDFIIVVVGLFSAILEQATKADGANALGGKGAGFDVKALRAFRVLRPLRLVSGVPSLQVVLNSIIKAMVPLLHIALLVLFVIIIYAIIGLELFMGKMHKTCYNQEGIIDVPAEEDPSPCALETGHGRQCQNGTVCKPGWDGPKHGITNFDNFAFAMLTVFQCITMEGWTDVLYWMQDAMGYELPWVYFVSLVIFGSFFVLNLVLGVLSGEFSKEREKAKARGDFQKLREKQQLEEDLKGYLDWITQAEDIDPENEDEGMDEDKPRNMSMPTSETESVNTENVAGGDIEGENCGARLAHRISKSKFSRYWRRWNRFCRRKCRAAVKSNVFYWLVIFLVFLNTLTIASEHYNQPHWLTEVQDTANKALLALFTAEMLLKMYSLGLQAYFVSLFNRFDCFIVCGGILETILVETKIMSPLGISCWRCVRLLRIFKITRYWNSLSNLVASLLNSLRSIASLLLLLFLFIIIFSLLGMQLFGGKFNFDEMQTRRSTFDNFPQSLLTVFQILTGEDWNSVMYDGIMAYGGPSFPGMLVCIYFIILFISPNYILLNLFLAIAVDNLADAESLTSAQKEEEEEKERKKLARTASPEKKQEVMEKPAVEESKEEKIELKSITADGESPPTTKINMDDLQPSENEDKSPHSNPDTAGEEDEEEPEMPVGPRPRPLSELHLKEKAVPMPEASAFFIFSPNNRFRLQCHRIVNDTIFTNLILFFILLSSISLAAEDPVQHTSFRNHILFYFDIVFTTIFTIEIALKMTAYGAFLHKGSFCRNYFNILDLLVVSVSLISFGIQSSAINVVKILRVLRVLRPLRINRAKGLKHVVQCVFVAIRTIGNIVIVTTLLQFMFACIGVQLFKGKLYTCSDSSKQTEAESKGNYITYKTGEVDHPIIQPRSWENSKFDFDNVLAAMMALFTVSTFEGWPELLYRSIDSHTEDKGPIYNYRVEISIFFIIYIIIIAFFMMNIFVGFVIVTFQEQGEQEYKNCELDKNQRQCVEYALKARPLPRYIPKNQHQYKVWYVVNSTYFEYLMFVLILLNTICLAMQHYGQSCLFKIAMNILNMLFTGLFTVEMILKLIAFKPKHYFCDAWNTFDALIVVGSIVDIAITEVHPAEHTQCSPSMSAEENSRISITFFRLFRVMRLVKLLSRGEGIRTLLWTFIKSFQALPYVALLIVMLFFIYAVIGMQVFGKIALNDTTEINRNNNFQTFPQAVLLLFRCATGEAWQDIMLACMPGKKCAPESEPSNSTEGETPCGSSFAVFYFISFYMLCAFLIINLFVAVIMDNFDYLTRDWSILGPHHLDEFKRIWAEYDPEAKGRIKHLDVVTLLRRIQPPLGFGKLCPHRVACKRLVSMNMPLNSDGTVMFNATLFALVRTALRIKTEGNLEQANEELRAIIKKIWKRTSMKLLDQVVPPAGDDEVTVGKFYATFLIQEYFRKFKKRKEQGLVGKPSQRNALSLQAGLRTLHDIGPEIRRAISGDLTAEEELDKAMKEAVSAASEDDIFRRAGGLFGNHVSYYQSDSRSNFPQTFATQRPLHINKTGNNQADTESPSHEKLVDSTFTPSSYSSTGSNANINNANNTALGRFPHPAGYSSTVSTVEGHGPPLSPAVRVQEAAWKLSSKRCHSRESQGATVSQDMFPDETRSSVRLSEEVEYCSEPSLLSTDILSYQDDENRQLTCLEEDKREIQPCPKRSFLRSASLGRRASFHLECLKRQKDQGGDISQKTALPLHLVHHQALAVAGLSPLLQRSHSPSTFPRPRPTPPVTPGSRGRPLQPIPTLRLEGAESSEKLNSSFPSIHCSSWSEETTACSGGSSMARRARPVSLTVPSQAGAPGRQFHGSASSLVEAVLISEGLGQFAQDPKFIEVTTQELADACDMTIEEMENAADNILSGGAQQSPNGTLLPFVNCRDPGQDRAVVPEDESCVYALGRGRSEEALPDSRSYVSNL
Sequence of Glucagon receptor (P47871 whole entry): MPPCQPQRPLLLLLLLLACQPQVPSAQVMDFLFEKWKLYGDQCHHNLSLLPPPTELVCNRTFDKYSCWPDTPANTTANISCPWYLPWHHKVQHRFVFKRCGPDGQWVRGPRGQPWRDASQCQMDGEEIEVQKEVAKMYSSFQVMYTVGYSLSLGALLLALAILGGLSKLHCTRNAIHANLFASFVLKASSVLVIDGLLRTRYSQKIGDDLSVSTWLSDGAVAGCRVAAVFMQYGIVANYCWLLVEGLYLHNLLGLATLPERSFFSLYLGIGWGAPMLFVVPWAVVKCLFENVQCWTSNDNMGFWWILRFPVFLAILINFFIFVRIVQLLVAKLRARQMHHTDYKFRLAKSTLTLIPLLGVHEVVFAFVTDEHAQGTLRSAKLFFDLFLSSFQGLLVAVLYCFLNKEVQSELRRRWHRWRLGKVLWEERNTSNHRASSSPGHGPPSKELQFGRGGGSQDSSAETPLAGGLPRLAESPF

On to `Cc1nnc(SCC2=C(C(=O)O)N3C(=O)[C@@H](NC(=O)Cn4cnnn4)[C@H]3SC2)s1` [CEFAZOLIN], for which the AC50 in experiment [1] was above 300 µM; in experiment [2] it was above 2400 µM; in experiment [3], above 30 µM. On to `COc1ccc2[nH]c([S+]([O-])Cc3ncc(C)c(OC)c3C)nc2c1` (stereo not given) [OMEPRAZOLE], for which the AC50 in experiment [4] was above 30 µM. The same measure, in the same setting: the same measure for `CC(C)[C@@H]1CC[C@@H](C)C[C@H]1O` [LEVOMENTHOL]: above 30 µM; for `C[C@H]1CN(C[C@H](Cc2ccccc2)C(=O)NCC(=O)O)CC[C@@]1(C)c1cccc(O)c1` [ALVIMOPAN]: above 30 µM. The same measure, in the same setting: with `C[N+]1(C)CCCC(OC(=O)C(O)(c2ccccc2)c2ccccc2)C1` (stereo not given) [MEPENZOLATE] the figure was above 30 µM; with `N=C(N)N/N=C/c1c(Cl)cccc1Cl` [GUANABENZ], above 30 µM; with `Cc1ccsc1C(=CCCN1CCC[C@@H](C(=O)O)C1)c1sccc1C` [TIAGABINE], above 30 µM. Regarding `O=C(O)c1ccccc1` [BENZOIC ACID], in experiment [4], the half-maximal activity concentration (AC50) is above 30 µM. For the compound `CC(=O)NCCCCCC(=O)O` [ACEXAMIC ACID], the half-maximal activity concentration (AC50) in experiment [4] was above 30 µM. As for `CC=CC1=C(C(=O)O)N2C(=O)[C@@H](NC(=O)[C@H](N)c3ccc(O)cc3)[C@H]2SC1` [CEFPROZIL], the AC50 in experiment [1], in experiment [5], in experiment [3] and in experiment [6] was above 30 µM in each case. Consider `C[N+](C)(C)CCOC(=O)CCC(=O)OCC[N+](C)(C)C` [SUXAMETHONIUM], for which the AC50 in experiment [4] was above 30 µM. Take `CC1(C)S[C@@H]2[C@H](NC(=O)C(C(=O)O)c3ccccc3)C(=O)N2[C@H]1C(=O)O` (stereo not given in full) [CARBENICILLIN]: the AC50 in experiment [1], in experiment [2], in experiment [3] and in experiment [6] was above 30 µM in each case. On to `Clc1ccc(Cn2c(CN3CCCC3)nc3ccccc32)cc1` [CLEMIZOLE], for which the AC50 in experiment [1] was 13 µM; in experiment [2], above 30 µM; in experiment [3], 15 µM. For `CC(C)Cc1ccc([C@H](C)C(=O)O)cc1` [DEXIBUPROFEN], in experiment [2], the AC50 is above 30 µM. For `C[C@]12C=CC(=O)C=C1CC[C@H]1[C@@H]3C[C@@H](O)[C@](O)(C(=O)CO)[C@@]3(C)C[C@H](O)[C@@]12F` [TRIAMCINOLONE], the AC50 in experiment [4] is above 30 µM; in experiment [6], 0.0091 µM. With `CCCNC(=O)NS(=O)(=O)c1ccc(Cl)cc1` [CHLORPROPAMIDE], the AC50 in experiment [5] is above 10 µM; in experiment [7] it was above 30 µM; in experiment [8], above 30 µM; in experiment [6], above 30 µM. For the compound `CC1(C)O[C@@H]2C[C@H]3[C@@H]4C[C@H](F)C5=CC(=O)C=C[C@]5(C)[C@@]4(F)[C@@H](O)C[C@]3(C)[C@]2(C(=O)CO)O1` [FLUOCINOLONE ACETONIDE], in experiment [4], the AC50 was above 30 µM. For the compound `CC(C(=O)O)c1ccc2oc(-c3ccc(Cl)cc3)nc2c1` (stereo not given) [BENOXAPROFEN], the half-maximal activity concentration (AC50) in experiment [5] and in experiment [6] was above 30 µM each time. `CCC1=C[C@@H]2CN(C1)Cc1c([nH]c3ccccc13)[C@@](C(=O)OC)(c1cc3c(cc1OC)N(C)[C@H]1[C@@](O)(C(=O)OC)[C@H](OC(C)=O)[C@]4(CC)C=CCN5CC[C@]31[C@@H]54)C2` [VINORELBINE] had an AC50 in experiment [4] above 30 µM. In turn, `Cc1ccc(C(=O)c2ccc(CC(=O)O)n2C)cc1` [TOLMETIN] registered an AC50 in experiment [4] above 30 µM. The compound `Cc1ccccc1C(=O)Nc1ccc(C(=O)N2CCCC(O)c3cc(Cl)ccc32)c(C)c1` (stereo not given) [TOLVAPTAN] displayed an AC50 in experiment [4] above 30 µM. Same read-out and setting: with `CCNC(=O)/C=C(C)/C=C/C=C(C)/C=C/c1c(C)cc(OC)c(C)c1C` [MOTRETINIDE] the figure was above 30 µM. Consider `CC(=O)Nc1ccc(CC(=O)O)cc1` [ACTARIT], for which the AC50 in experiment [1], in experiment [5], in experiment [3] and in experiment [6] was above 30 µM each time.

`CCCCCCCN(CC)CCCC(O)c1ccc(NS(C)(=O)=O)cc1` (stereo not given) [IBUTILIDE]: the AC50 in experiment [1] is 18 µM; in experiment [5], above 30 µM; in experiment [3] it was 25 µM; in experiment [6] it was above 30 µM. Consider `S=P(N1CC1)(N1CC1)N1CC1` [THIOTEPA], for which the AC50 in experiment [2] was above 30 µM.

Take `CNC(=C[N+](=O)[O-])NCCSCc1csc(CN(C)C)n1` [NIZATIDINE]: the AC50 in experiment [5] and in experiment [6] was above 10 µM in each case. Regarding `C[C@H]1O[C@@H](O[C@H]2CC[C@@]3(C)[C@H](CC[C@@H]4[C@@H]3C[C@@H](O)[C@]3(C)[C@@H](C5=CC(=O)OC5)CC[C@]43O)C2)C[C@H](O)[C@@H]1O[C@H]1C[C@H](O)[C@H](O[C@H]2C[C@H](O)[C@H](O[C@@H]3O[C@H](CO)[C@@H](O)[C@H](O)[C@H]3O)[C@@H](C)O2)[C@@H](C)O1` [DESLANOSIDE], the AC50 in experiment [4] is above 30 µM.

In the case of `C=C(C)CNc1ccc(C(C)C(=O)O)cc1` (stereo not given) [ALMINOPROFEN], the AC50 in experiment [4] is above 30 µM. In the case of `CC(C)(O/N=C(\C(=O)N[C@@H]1C(=O)N2C(C(=O)[O-])=C(C[n+]3ccccc3)CS[C@H]12)c1csc(N)n1)C(=O)O` [CEFTAZIDIME], the AC50 was above 300 µM in experiment [1], above 2400 µM in experiment [2], above 30 µM in experiment [3] and above 30 µM in experiment [6]. As to `Cc1cc(C2CCCCC2)n(O)c(=O)c1` [CICLOPIROX], in experiment [4], the AC50 is above 30 µM.

Regarding `CC(C(=O)O)c1cccc(Oc2ccccc2)c1` (stereo not given) [FENOPROFEN], in experiment [4], the AC50 was above 30 µM. In turn, `CCC(=O)O[C@]1(C(=O)CCl)[C@@H](C)C[C@H]2[C@@H]3CCC4=CC(=O)C=C[C@]4(C)[C@@]3(F)[C@@H](O)C[C@@]21C` [CLOBETASOL PROPIONATE] displayed an AC50 in experiment [6] of 0.0078 µM. For the compound `COc1cc(C(=O)NS(=O)(=O)c2ccccc2C)ccc1Cc1cn(C)c2ccc(NC(=O)OC3CCCC3)cc12` [ZAFIRLUKAST], the AC50 in experiment [5] was above 10 µM; in experiment [6], 24.9 µM. Consider `CCOc1cc([C@@H](CS(C)(=O)=O)N2C(=O)c3cccc(NC(C)=O)c3C2=O)ccc1OC`, for which the AC50 in experiment [1], in experiment [2] and in experiment [3] was above 30 µM each time. As for `Cc1onc(-c2c(F)cccc2Cl)c1C(=O)N[C@@H]1C(=O)N2[C@@H]1SC(C)(C)[C@@H]2C(=O)O` [FLOXACILLIN], the AC50 in experiment [1], in experiment [2] and in experiment [3] was above 30 µM in each case. `CN1Cc2c(N)cccc2C(c2ccccc2)C1` (stereo not given) [NOMIFENSINE]: the AC50 in experiment [1] was above 30 µM; in experiment [2], above 30 µM; in experiment [3], 15 µM; in experiment [6], above 30 µM. Turning to `CCCc1cc(=O)[nH]c(=S)[nH]1` [PROPYLTHIOURACIL], in experiment [5], the AC50 is above 10 µM. In the case of `Cn1cc(C(=O)[C@@H]2CCc3nc[nH]c3C2)c2ccccc21` [RAMOSETRON], the AC50 in experiment [1] was 0.34 µM; in experiment [5], above 30 µM; in experiment [3], above 30 µM; in experiment [6], above 30 µM. In experiment [4], `CN(C)c1ccc(O)c2c1C[C@H]1C[C@H]3[C@H](N(C)C)C(O)=C(C(N)=O)C(=O)[C@@]3(O)C(O)=C1C2=O` [MINOCYCLINE] showed an AC50 above 30 µM.

By AC50 is commonly meant the concentration at which the activity in the assay is half-maximal.
